Experimental data taken from paper PMC8745263 (International Journal of Molecular Sciences, 2021).

Molecular target: T1, APEH partially purified from human blood cells (Homo sapiens, UniProt P13798)
T1 construct: incubated with APEH partially purified from human blood cells; from tissue; host or cells: human red blood cells (erythrocyte hemolysate from donors' blood)
T1 sequence (P13798 1-732): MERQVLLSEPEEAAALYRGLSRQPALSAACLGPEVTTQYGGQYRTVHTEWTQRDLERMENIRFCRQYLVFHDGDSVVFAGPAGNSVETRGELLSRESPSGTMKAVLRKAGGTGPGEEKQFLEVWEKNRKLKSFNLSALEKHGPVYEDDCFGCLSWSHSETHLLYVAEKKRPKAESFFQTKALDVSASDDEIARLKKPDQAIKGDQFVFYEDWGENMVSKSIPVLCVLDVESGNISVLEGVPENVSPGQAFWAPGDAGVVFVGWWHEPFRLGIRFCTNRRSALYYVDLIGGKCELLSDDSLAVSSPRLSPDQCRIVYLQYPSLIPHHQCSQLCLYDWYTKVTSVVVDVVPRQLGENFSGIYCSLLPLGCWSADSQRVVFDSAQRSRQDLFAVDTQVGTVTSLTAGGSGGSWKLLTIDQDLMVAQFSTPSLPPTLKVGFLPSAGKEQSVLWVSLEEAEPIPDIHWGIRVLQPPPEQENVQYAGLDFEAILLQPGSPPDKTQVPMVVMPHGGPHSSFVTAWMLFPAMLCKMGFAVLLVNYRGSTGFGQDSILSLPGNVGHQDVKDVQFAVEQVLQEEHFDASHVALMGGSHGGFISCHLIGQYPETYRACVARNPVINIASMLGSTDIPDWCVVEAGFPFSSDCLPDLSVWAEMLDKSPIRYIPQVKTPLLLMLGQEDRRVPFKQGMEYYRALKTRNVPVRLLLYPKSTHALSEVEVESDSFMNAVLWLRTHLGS
Assay: Treatment of peptides with APEH and assessment of proteolysis by LC-MS
Type: biochemical
Settings: APEH 0.7 μg, 37 °C, 48 h; for % Degradation (overall % of peptide degraded upon exposure to APEH): sum of fragment % of Table 2(a), Tris-HCl 25 mM pH 7.5, N.D. = not degraded
Protocol: In order to identify the potential cleavage sites of APEH on the oxidized GDF11[48-64], the peptide was incubated alone or in combination with the enzyme and the corresponding reaction mixtures were analyzed by LC-MS. The same experiments were performed using the non-oxidized analogues as control.
Blood samples were taken from donors using syringes with heparin. In accordance with ethical principles stated in the Declaration of Helsinki, as well as with approved national and international guidelines for human research, a written informed consent was obtained from participants. The erythrocytes were separated from the plasma by centrifugation at 1800× g for 5 min at 4 °C and washed twice with an isotonic solution (10 mM Tris-HCl pH 7.6, […]; 4 °C). Lysis of erythrocytes was carried out by incubation in hypotonic solution (25 mM Tris/HCl, pH 7.5) for 30 min on ice. The hemolysate was obtained by centrifugation of the lysate at 9200× g for 40 min at 4 °C. Then, the ‘soluble fraction’ was loaded onto a DEAE Sepharose Fast Flow column, connected to an AKTA FPLC system (Amersham Biosciences, Amersham, UK), previously equilibrated in 25 mM Tris-HCl (pH 7.5) (buffer A). The bound proteins were eluted using a linear ionic strength gradient (0–100%) of 1 M NaCl in buffer A at a flow rate of 1 mL min^−1. The active fractions were collected, pooled, dialyzed against 25 mM Tris-HCl pH 7.5 and loaded on a Superdex 200 PC 3.2/30 column (Pharmacia Biotech, Stockholm, Sweden) connected to a SMART System (Pharmacia Biotech, Stockholm, Sweden). The bound proteins were eluted with 25 mM Tris-HCl buffer, pH 7.5, containing 50 mM NaCl, at a flow rate of 0.1 mL min^−1. The active fractions were collected, pooled, dialyzed against 25 mM Tris-HCl pH 7.5 and stored in the same buffer supplemented with 5% glycerol. Enzyme purification was monitored using Ac-Met-7-amino-4-methylcoumarin (AMC) as substrate. Active fractions were analyzed by SDS-PAGE (12%) in order to evaluate the enrichment of the protein during the various purification steps. The protein was also characterized by Western Blot analysis. Aliquots of protein samples were subjected to SDS-PAGE (8%), and then electroblotted onto PVDF membranes (ImmobilonTM, Millipore, Milan, Italy). Membranes were next incubated with the specific primary antibody (sc-102311, 1:5000, Santa Cruz Biotechnology, USA) and then with the horseradish peroxidase-conjugated secondary antibody for 1 h at 37 °C (1:5000, Santa Cruz Biotechnology, Dallas, TX, USA). The immune complexes formed were visualized by enhanced chemiluminescence and autoradiography, according to the manufacturer’s protocol (Amersham Biosciences, Amersham, UK). Molecular mass of the native enzyme was established by gel filtration chromatography on a Superdex 200 PC 3.2/30 column (Pharmacia Biotech, Stockholm, Sweden), connected to a SMART system (Pharmacia Biotech, Stockholm, Sweden), and calibrated with BioRad gel filtration standards (BioRad, Milano, Italy; code 151-1901). The enzyme inhibition assay was performed on APEH preparation using the selective and potent inhibitor AA74-1 (SML0358, Sigma-Aldrich, Milano, Italy). Mixtures containing appropriate amount of inhibitor (62 µM) and APEH sample (0.7 μg) were pre-incubated for 30 min at 37 °C; then the substrate Ac-Met-7-amino-4-methylcoumarin (AMC) was added to the assay mixture and the enzymatic activity was followed as previously described. Control samples were prepared by pre-incubating the same amounts of APEH without the inhibitor and then assayed following the same procedure.
In total, 10 nmol/200 μL of each molecule was incubated with APEH partially purified from human blood cells (0.7 μg, 24.000 total units) at 37 °C for 48 h in Tris-HCl 25 mM pH 7.5. […]

[1] = 10 nmol/200 μL peptide, Tris-HCl 25 mM pH 7.5, EIC peak areas, average of three independent experiments
[2] = 10 nmol/200 μL peptide, Tris-HCl 25 mM pH 7.5, EIC peak areas, average of three independent experiments, listed as GDF11[48-64]ox
[3] = 10 nmol/200 μL peptide, Tris-HCl 25 mM pH 7.5, EIC peak areas, average of three independent experiments, listed as GDF11 wt

| Substance | susceptibility to APEH endoprotease cleavage (in words) (Tris-HCl 25 mM pH 7.5) | % fragment cleaved at L60 (Ac-...HTHL, lacking VQQA), percentage of the initial substrate [1] | % fragment cleaved on carboxy side of H59 (Ac-...HTH, lacking LVQQA), percentage of the initial substrate [1] | % fragment cleaved on carboxy side of Q62 (Ac-...HTHLVQ, lacking QA), percentage of the initial substrate [1] | % intact peptide left after APEH exposure (percentage of the initial substrate) [1] | % fragment cleaved at L60 (Ac-...HTHL, lacking VQQA), percentage of the initial substrate [2] | % fragment cleaved on carboxy side of H59 (Ac-...HTH, lacking LVQQA), percentage of the initial substrate [2] | % fragment cleaved on carboxy side of Q62 (Ac-...HTHLVQ, lacking QA), percentage of the initial substrate [2] | % fragment cleaved on carboxy side of H59 (Ac-...HTH, lacking LVQQA), percentage of the initial substrate [3] | % fragment cleaved on carboxy side of Q62 (Ac-...HTHLVQ, lacking QA), percentage of the initial substrate [3] | cleavage at H59 as % of the total processed peptide (Tris-HCl 25 mM pH 7.5) | cleavage at L60 as % of the total processed peptide (Tris-HCl 25 mM pH 7.5) | cleavage at Q62 as % of the total processed peptide (Tris-HCl 25 mM pH 7.5) | % Degradation (overall % of peptide degraded upon exposure to APEH) (10 nmol/200 μL peptide) | % Degradation (overall % of peptide degraded upon exposure to APEH) (10 nmol/200 μL peptide, listed as GDF11[48-64]ox) |
| --- | --- | --- | --- | --- | --- | --- | --- | --- | --- | --- | --- | --- | --- | --- | --- |
| Ac-EYMFMQKYPHTHLVQQA-NH2 [GDF11[48-64]wt, peptide reproducing the 48–64 region of GDF11 protein, acetylated and amidated] | No cleavage | – | – | – | – | – | – | – | – | – | – | – | – | – | – |
| Ac-EYM(ox)FM(ox)QKYPHTHLVQQA-NH2 [GDF11[48-64] wt ox, GDF11[48-64]wt bearing sulphoxide groups on M50 and M52, by 3% H2O2 treatment] | – | 8.4% | 25.6% | 16.4% | 49.6% | about 8% | about 26% | about 16% | ~28% | 18% | around 50% | about 17% | around 32% | 50.4% | around 50% |
